Assay results as given in ChEMBL document CHEMBL3507680, “University of Dundee, Gates Library screen for HepG2 cell viability”.

assay: Human HepG2 cell viability assay in 384 well format; type: toxicity, cell-based; set-up: dose 125 nL, time 70.5 hour; cytotoxicity at 70.5 h: concentration not given beside the values; conditions: HepG2 cells, read-out: Inhibition

| Structure (SMILES) | cytotoxicity at 70.5 h [%] |
| --- | --- |
| N#Cc1cccnc1NCCNC(=O)N1CCCSCC1 | -13 |
| Cc1cccc(C2CCCN2C(=O)CCS(C)(=O)=O)c1C (stereo not drawn) | 18.6 |
| CCNc1ncc(C(=O)NC(CCN(C)C)c2ccccc2)cn1 (stereo not drawn) | 26.8 |
| O=C(CCNC(=O)C1CCCC1)NCc1ccccc1Cn1ccnc1 | -8.37 |
| CC(C)Cn1nc2ccc(S(=O)(=O)N3CCC(C)CC3)cn2c1=O | -10.3 |
| CCc1cccc2cc(CN)c(=O)[nH]c12 | -10 |
| O=C([C@H]1COC[C@H]2CN(C3CCCCC3)C[C@H]21)N1CCOCC1 | -9.52 |
| O=C(NC1CC1)[C@H]1C[C@H]2OCC[C@H]2N(CC2CCOCC2)C1 | 22.7 |
| CC(C)[C@H]1CN(Cc2c[nH]cn2)C[C@@H]1NC(=O)CC1CCC1 | -6.54 |
| CN(CCNC(=O)N1CCCC1)C(=O)OC(C)(C)C | -11.5 |
| CCNC(=O)NC(=O)CNC1(c2noc(C)n2)CCCCC1 | 28.5 |
| Cc1nnc([C@@H]2CC[C@@H]3[C@@H](CCN3S(=O)(=O)C3CC3)O2)o1 | -14 |
| CC(C)(N)C(=O)N1CCC(c2nccnc2Oc2ccccc2F)CC1 | 7.72 |
| C[C@@H](O)CNC(=O)CCc1nc2cccnc2[nH]1 | -23.4 |
| CCc1nc(Cn2nc(COC)oc2=O)cs1 | -9.78 |
| CC(=O)N1CC2(CCN(C(=O)c3cccc4[nH]ccc34)CC2)C1 | -8.74 |
| Cc1ccc(CN2CCN(CC(=O)Nc3ccc4nsnc4c3)CC2)o1 | -5.71 |
| Cc1nc(N2CCN(C(=O)C3CC3)CC2)c2c(n1)c(C)nn2C | 0.516 |
| Cc1ccsc1S(=O)(=O)N1CCc2c(c(C(=O)O)nn2CC2CC2)C1 | -7.3 |
| Fc1ccc(-c2cnc(C3CCCN3)cn2)cc1 (stereo not drawn) | -2.54 |
| Cc1ccc(CN2Cc3ccnn3CC(COCc3cccnc3)C2)o1 (stereo not drawn) | -5.79 |
| CN1CCC2(CCCN(c3nccc(C(F)(F)F)n3)C2)CC1 | -11.3 |
| CN(C)c1ncnc2c1CCN(S(=O)(=O)c1cccc3nsnc13)C2 | -5.63 |

| Structure (SMILES) | cytotoxicity at 70.5 h [%] |
| --- | --- |
| c1cc(N2CCC3(COCc4cnc(NCC5CC5)nc43)C2)ncn1 (stereo not drawn) | 32.2 |
| O=C(c1cnc(NCCC2CCCO2)c(Cl)c1)N1CCCCC1 (stereo not drawn) | -10 |
| c1ncn(CC2CCCCN2Cc2cn3ccsc3n2)n1 (stereo not drawn) | 5.43 |
| Cc1cc(N2CCCN(CCc3ccccc3)CC2)ccn1 | -5.44 |
| O=c1c(NCCNCCO)c(N2CCN(c3ccccc3)CC2)c1=O | -6.86 |
| Cn1cc(CN2CCCC23CCN(C(=O)c2ccccn2)CC3)cn1 | 18.2 |
| Cc1nn(C)c(C)c1CN(C)C1CCN(c2ncnc3[nH]cnc23)CC1 | 23.7 |
| Cc1cc(C(=O)N2C[C@@H]3CCCO[C@@H]3[C@H](N3CCOCC3)C2)c(C)[nH]1 | -12.4 |
| Cc1oncc1C(=O)N1CC2CC1(C(=O)N(C)C)C2 | -6.15 |
| Clc1ccc(CN2CCCC(Cn3cncn3)C2)c2ncccc12 (stereo not drawn) | -8.25 |
| Cc1cc(N(C)CCC(O)c2ccccc2)n2nccc2n1 (stereo not drawn) | -3.24 |
| C[C@@H]1CN(C2(C(=O)N3CC[C@H](O)C3)Cc3ccccc3C2)C[C@H](C)O1 | -11.9 |
| CN(C)c1cc(CNc2ccc(S(=O)(=O)C(C)(C)C)nc2)ccn1 | 8.83 |
| Cc1nnc(N2CCOC(C)(C(=O)NC3CCCC3)C2)c2ccccc12 (stereo not drawn) | -3.81 |
| Cc1ccc(-n2nc(C)c3c2NC(=O)CC3c2cnc(N)s2)cc1 (stereo not drawn) | -0.62 |
| CN(Cc1cnc(N)nc1)C(=O)C1CCN(C(=O)C2CCCC2)CC1 | -4.62 |
| O=C(NCc1cccs1)c1[nH]nc2c1CS(=O)(=O)CC2 | -0.606 |
| Cc1noc(CNC(=O)CN(C)c2nc3ccccc3s2)n1 | -5.76 |
| Cc1ccc(CNCc2nccn2C)c(OCC2CC2)c1 | 7.03 |
| Cc1ccc(CN2CCOC3(COCCN(CCN(C)C)C3)C2)o1 (stereo not drawn) | -7.86 |
| CC(C)NC(=O)N1CCN(CC2CC2)CC2(CNC(=O)C2)C1 (stereo not drawn) | -17.7 |
| CCc1cnc(N2CCN(Cc3ccon3)CC2)s1 | -6.28 |
| Cc1nn(C)c(C)c1S(=O)(=O)N(C)Cc1nn(C)c(Cl)c1Cl | 18.2 |

| Structure (SMILES) | cytotoxicity at 70.5 h [%] |
| --- | --- |
| Cc1ccc2c(n1)N(CCn1cccn1)CCN(C(=O)NC(C)C)C2 | 21.7 |
| CS(=O)(=O)Cc1cccc(C(=O)N2CCCC(n3cccn3)C2)c1 (stereo not drawn) | 17.8 |
| CSCCc1ccc(NC(=O)NCc2ccnc(N(C)C)c2)cc1 | 16.5 |
| COc1cccc2c1OCC(CNc1cc(N)nc(SC)n1)C2 (stereo not drawn) | -8.3 |
| CCN1C[C@H]2C[C@H](C(=O)NCc3cccnc3)[C@@H](C1)O2 | 3.07 |
| CC(C(=O)Nc1ccccc1Sc1ccccc1)S(C)(=O)=O (stereo not drawn) | -3.46 |
| c1cnc(N2CCOCC3(CNCCO3)C2)nc1 (stereo not drawn) | 15.5 |
| COCc1cc(NCc2cc(F)ccc2F)n2nccc2n1 | -0.226 |
| Fc1cccc(-c2c[nH]c([C@@H]3COCCN3C3CCOCC3)n2)c1 | -8.23 |
| CCOC1Sc2nnc(C)n2N=C1c1ccc(F)cc1 (stereo not drawn) | -5.95 |
| Cc1cc(Cc2ccc(S(=O)(=O)N3CCSCC3)cc2)c(=O)[nH]n1 | 1.5 |
| Cc1nc(C)n(CC2CCCN(CCCOc3ccccc3)C2)n1 (stereo not drawn) | -0.0538 |
| COc1cc(NC2CCS(=O)(=O)C2)ncn1 (stereo not drawn) | -17.8 |
| CC(C)(C)c1n[nH]cc1CNC1CCC(C(F)(F)F)CC1 (stereo not drawn) | -0.127 |
| Cn1c(N2CC[C@H](O)C2)nc2cc(C(N)=O)ccc21 | 5.31 |
| CCN1CCOCC2(CCCN(C(=O)c3cnccn3)C2)C1 (stereo not drawn) | -14.9 |
| CC(=O)Nc1cccc(Cn2nc(C)nc2C)c1 | -6.2 |
| CCOC(=O)N1CCC(N2Cc3ncccc3C2=O)CC1 | 3.24 |
| COc1cccc(COCC(O)CN(C)c2ccc(C)cc2C)c1 (stereo not drawn) | -0.324 |
| Cc1noc(C)c1CCC(=O)N1CCOCC1CC(=O)N1CCCC1 (stereo not drawn) | 1.48 |
| CC(C)C[C@@H]1N[C@H](C(=O)NCC2CC2)Cc2c[nH]c3cccc1c23 | 0.485 |
| C/C=C(\C)CN1C[C@H](NC(=O)CN2CCCC2=O)[C@@H](c2ccc(C)o2)C1 | 9.35 |
| CCc1nc(CCNC(=O)Nc2ccc(C(=O)NC)cc2C)cs1 | 13.7 |

| Structure (SMILES) | cytotoxicity at 70.5 h [%] |
| --- | --- |
| CCc1nc(CN2CCN(C(=O)CCc3ccccc3)CC2)cs1 | 3 |
| CCn1cc2c(n1)CN(Cc1ccc(F)cc1)CC2COCC1CC1 (stereo not drawn) | -1.9 |
| Cc1cc(C)nc(CN(C)c2nc(C3CCCC3)nc3c2cnn3C)c1 | -9.74 |
| Cc1ccc(O)c(CN2CCc3nc(-c4cccnc4)nc(O)c3C2)c1 | -5.78 |
| Cc1nn(C)c2c(N3CCN(C(=O)C4CC4)CC3)ncnc12 | 16.2 |
| CCS(=O)(=O)N1CCc2ccc(NC(=O)NC3CCCCC3)cc21 | -7.09 |
| CCn1ncnc1C(C)NC(=O)C1CCN(C(=O)COC)CC1 (stereo not drawn) | -8.09 |
| CCSCCNC(=O)C(c1cccc(F)c1)N(C)C (stereo not drawn) | -6.8 |
| COc1cccc(-c2cnc3n2CCC32CCN(C(C)=O)CC2)c1 | -3.5 |
| COc1ccc(CCN2CCC(N3CCN(C)C3=O)CC2)cc1 | -8.36 |
| COc1ccc(N(CCC(N)=O)C(=O)CSc2ccc(Cl)cc2)cc1 | -0.942 |
| Cc1cnn(C(C)C2CC2)c1NC(=O)c1ccncc1 (stereo not drawn) | -8.36 |
| CN(Cc1cn2c(n1)CN(C(=O)N(C)C)CC2)Cc1ccco1 | -5.21 |
| CCC[C@H]1CN(c2cncc(C(=O)N(C)C)n2)C[C@@H]1N(C)C | 19.4 |
| Cc1c[nH]nc1C1CCCN(c2cnccn2)C1 (stereo not drawn) | -2.27 |
| Cc1csc(N2CCN(Cc3nnsc3Cl)CC2C)n1 (stereo not drawn) | -16 |
| COc1ccc(CN2CCC=C(C(C)NC(C)=O)C2)cc1 (stereo not drawn) | -10.1 |
| Cc1ncsc1CCN(C)C(=O)CN1CC2(CCCC2)CC1=O | -15 |
| O=C(Nc1cnn(CCN2CCOCC2)c1)c1cc(F)ccc1F | -2.44 |
| CC(C)n1nc2c(cc1=O)CN(Cc1nc(-c3ccoc3)no1)CC2 | 17 |
| CC(C(=O)N1CCc2sccc2C1)N1CCCN(C2CC2)CC1 (stereo not drawn) | -10.7 |
| NC(=O)NC(=O)CCn1ccc(-c2ccccc2)n1 | 16 |
| Cn1ccnc1CNC1CCCOc2c1ccc1ccccc21 (stereo not drawn) | -6.96 |

| Structure (SMILES) | cytotoxicity at 70.5 h [%] |
| --- | --- |
| CN(C)CC(=O)N1CCCC2(CCC(=O)N(CCc3c[nH]cn3)C2)C1 (stereo not drawn) | -14.8 |
| Cn1cccc1C(=O)NCc1cn2c(n1)CN(CC1CCOC1)CC2 (stereo not drawn) | 17.2 |
| Cc1cc(CNC(=O)N2CCN(c3nc(C)c(C)s3)CC2)no1 | 7.38 |
| COCC1c2nnn(CC3CC3)c2CCN1C(=O)c1ccnnc1 (stereo not drawn) | -6.63 |
| NS(=O)(=O)c1ccc(NC(=O)CSc2ccc3c(c2)CCC3)cc1 | -2.39 |
| CC[C@H]1CN2CC[C@H]1C[C@@H]2CNCc1ccc(OC(F)(F)F)cc1 | -7.22 |
| O=C(Cc1ccon1)NC1CC2(CCC2)Oc2ccccc21 (stereo not drawn) | 4.31 |
| COC[C@@]12CCO[C@@H]1CCN(C(=O)c1ccc(F)c(F)c1)C2 | 0.0264 |
| O=C(Cn1cc(C(=O)O)ccc1=O)NCc1ccc(F)cc1Cl | 5.89 |
| CC(C)CNC(=O)c1cccc(Oc2ccc3nncn3n2)c1 | -9.71 |
| CCc1nc(CN(C)C2CCN(CCn3cccn3)C2)no1 (stereo not drawn) | -15.3 |
| CN(C)[C@@H]1CCN(c2ncc(F)cn2)[C@H]1Cc1ccccc1 | -4.36 |
| c1cc2nccc(CC3CCCN(Cc4ncc[nH]4)CC3)c2cn1 (stereo not drawn) | -7.89 |
| CC(C)c1nc(C2CCCN(C(=O)CCCn3cccn3)C2)no1 (stereo not drawn) | -4.14 |
| COCC1N(C(=O)N2CCOCC2)[C@H]2CC[C@]1(O)CC2 (stereo partly drawn) | -1.43 |
| COCC(NC(=O)c1cn(-c2cccc(Cl)c2F)nn1)C1CC1 (stereo not drawn) | -0.579 |
| CCOc1ncccc1CNC(=O)c1cc(C)on1 | -8.59 |
| CC(=O)Nc1ccc(CN(C)Cc2snnc2C)cc1 | -5.27 |
| CCc1noc(C)c1C(=O)N1CCCCC1Cn1cc(C)cn1 (stereo not drawn) | 46.7 |
| COCC1CN(C(=O)CNC(C)=O)Cc2ncnn2C1 (stereo not drawn) | -8.02 |
| COc1cccc(COCC(=O)NC(C(N)=O)c2ccccc2)c1 (stereo not drawn) | 3.41 |
